# Results as given in patent US9920383B2, “Active substances for increasing the stress defense in plants to abiotic stress, and methods of finding them” (Bayer Intellectual Property GMBH, priority 2005, dated 2018).
# Experiments:
# [1] = tested on: Zm18994.2.A1_at: putative serine transferase; assay: Gene expression profiling (maize genome array), heat stress; format: in vivo, maize cv. Lorenzo; details: vs unstressed solvent-dressed control
# Method: (§1) Maize seeds cv. Lorenzo were dressed as described in example 1 with the compound VIII-3 (=4-cyclopropylaminocarbonyl-N-(2-methoxybenzoyl)benzenesulfonamide) or with solvent. The plants were raised for 10 days in a controlled-environment chamber (conditions: see example 1).
# (§2) Thereafter, the plants were exposed to the following stress conditions: • (1) Heat stress: 6 h at 45° C. • (2) Drought stress: 7 days without irrigation, 24° C.
# (§3) The control plants of the specific experimental group were kept under the standard conditions described in example 1 (temperature, irrigation).
# (§4) After the stress treatment, the leaves of the stressed plants and of the unstressed control plants were harvested, shock-frozen in liquid nitrogen and stored at −80° C. until processed. All experiments were carried out in replications of in each case 2 pots.
# (§5) The labeled RNA probes for the DNA chip hybridization were prepared as described in the protocols (Expression Analysis. Technical Manual) from Affymetrix (Affymetrix Inc., 3380 Central Expressway, Santa Clara, Calif., USA). First, total RNA was isolated from in each case 500 mg of the harvested leaves. In each case 10 μg of total RNA were used for the cDNA first- and second-strand synthesis. The cDNA was amplified with T7 polymerase and simultaneously labeled with biotin-UTP. In each case 20 μg of this biotinylated […] were employed for the hybridization of the maize genome array from Affymetrix. This DNA microarray contains DNA sequences whose totality represents 13339 genes. Thereafter, the DNA microarrays were washed in the Affymetrix Fluidics Station, stained with streptavidin/phycoerythrin (Molecular Probes, P/N S-866) and scanned with the appropriate Agilent Laser Scanner (Agilent Gene Array Scanner). The fluorescence data obtained were analyzed using Affymetrix's Microarray Suite 5 software. After the quality assurance had been performed, all DNA chip analyses were stored in a database. To determine relevant expression values (induction factors, repression factors), the absolute expression values of the genes from the respective stress experiments were compared with the values of the respective control experiments (i.e. without abiotic stress and solvent-dressing only), based on the scoring function predetermined by the Affymetrix software. The resulting 4 expression values per gene were averaged by calculating the median value. These median values are shown in the results tables as induction factors. Similarity comparisons of expression profiles of various experiments and cluster analyses were carried out using the “genedata expressionist” software from Genedata (Genedata, Maulbeerstr. 46, CH-4016 Basel, Switzerland).
# (§6) The analysis of the expression profiles specifically searched for genes which are induced by the test substances only in conjunction with abiotic stress, but not by the substances or by stress alone. Such genes can be considered as indicators for additional anti-stress effects of the substances which exceed the known safener effect. The induction patterns of the indicator genes described permit the targeted finding of active substances for increasing the abiotic stress tolerance in crop plants. • a) Under heat stress conditions, i.e. the tested maize plants (dressed with 2 mg a.i. 4-cyclopropylaminocarbonyl-N-(2-methoxybenzoyl)benzenesulfonamide/g seeds) were exposed to a temperature of 45° C. for 6 hours 7 days after germination.
# (§7) • Condition A: heat stress (6 hours, 45° C.) • Condition B: Seeds dressed with 4-cyclopropylaminocarbonyl-N-(2-methoxybenzoyl)benzenesulfonamide (VIII-3)/NO heat stress • Condition C: Seeds dressed with 4-cyclopropylaminocarbonyl-N-(2-methoxybenzoyl)benzenesulfonamide (VIII-3)+heat stress (6 hours, 45° C.).
# [2] = tested on: Zm.4274.1.S1_at: cytochrome P450; assay: as above; format: in vivo, maize cv. Lorenzo; details: vs unstressed solvent-dressed control
# Method: as §1, §2, §3, §4, §5, §6, §7
# [3] = tested on: Zm12587.1.S1.s_at: glycosyltransferase; assay: as above; format: in vivo, maize cv. Lorenzo; details: vs unstressed solvent-dressed control
# Method: as §1, §2, §3, §4, §5, §6, §7
# [4] = tested on: maize plants; assay: Chill stress experiment (field) with maize plants, seed dressing; format: in vivo, maize (dent com); details: for Chill damage [%]: number of plants with chill damage > 20% of the total number of plants in the test plot
# Method: One control plant contains untreated seed. Approximately 8 days after the seed emerged, the seedlings were in the one-leaf stage and were exposed for 5 days to the following temperature conditions:
# After this chill period, the test plots were scored. For this purpose, all plants were assessed individually, and plants with at least 20% chill symptoms based on the total leaf area (burns and/or chloroses) were considered to be damaged.
# [5] = seeds dressed with VIII-3 (2 mg a.i./g seeds), NO heat stress
# [6] = seeds dressed with VIII-3 + heat stress (6 hours, 45° C.)
structure (smiles),measurement,setting,value
"COc1ccccc1C(=O)NS(=O)(=O)c1ccc(C(=O)NC2CC2)cc1 [VIII-3, 4-cyclopropylaminocarbonyl-N-(2-methoxybenzoyl)benzenesulfonamide]","induction factor Zm18994.2.A1_at, Condition B",[1]; [5],1.46
same,"induction factor Zm18994.2.A1_at, Condition C",[1]; [6],2.66
same,"induction factor Zm.4274.1.S1_at, Condition B",[2]; [5],1.22
same,"induction factor Zm.4274.1.S1_at, Condition C",[2]; [6],1.93
same,"induction factor Zm12587.1.S1.s_at, Condition B",[3]; [5],1.45
same,"induction factor Zm12587.1.S1.s_at, Condition C",[3]; [6],2.33
same,Chill damage [%],[4]; dressed with 0.003 mg per seed,12%
same,Chill damage [%],[4]; dressed with 0.03 mg per seed,12%
same,chill damage compared with control plot,[4]; test plots with dressing with active substance,significantly reduced
same,plants showing damage symptoms,[4]; test plots with dressing with active substance (both quantities),approximately 12%
